Results: PMC7728077, “Double-Headed Cationic Lipopeptides: An Emerging Class of Antimicrobials” (International Journal of Molecular Sciences, 2020)
Values after ≈ are worked out from the molar mass of the structure shown. Square brackets hold non-standard residues; d marks the D form. Peptide text beside a SMILES is read from it. * marks the point of attachment. Palmitoyl = CCCCCCCCCCCCCCCC(=O)*; Dab = NCC[C@H](N)C(=O)O

Columns and labels:
[1] = test system: A549 human epithelial lung carcinoma; format: cell-based
Protocol: (§1) In the case of evaluation of cytotoxicity towards different types of the cancer cell lines (A375, A549, HCT-116, HT-29, and LNCaP, respective cells were seeded in 96-well plates (4500 cell/well) in the RPMI-1640 medium supplemented with 5% FBS without antibiotics and incubated for 24 h before stimulation with the lipopeptides. The next day, the cells were exposed to the effect of the serially diluted compounds added at concentrations ranging from 1 to 25 µg/mL for a period of 48 h. After the treatment, cells viability was evaluated by means of MTT assays, according to standard protocol, as just described. The experiment was repeated three times for each cell line.
(§2) Determination of the half-maximum inhibitory concentrations (IC50) was done using GraphPad Prism 5 software (San Diego, CA, USA) based on the dose-response curves. The logarithm of the different concentrations of compounds was plotted against the percentage of inhibition in cell viability as compared with control probes, treated as 100%.

[2] = test system: HCT-116 human colorectal carcinoma; format: cell-based
Protocol: as §1, §2

[3] = test system: LNCaP human prostate carcinoma; format: cell-based
Protocol: as §1, §2

[4] = test system: A375 human malignant melanoma cell line; format: cell-based
Protocol: as §1, §2

[5] = test system: HT-29 human colorectal adenocarcinoma; format: cell-based
Protocol: as §1, §2

[6] = Surface tension measurements (critical aggregation concentration); format: physicochemical; details: Wilhelmy plate method, aqueous solution, 298 K; for Critical aggregation concentration (CAC): surface tension
Protocol: The surface tension was determined in aqueous solution at 298 K by the Wilhelmy plate method using a Force Tensiometer K100 (Krüss, Hamburg, Germany). The results were presented as a function of decimal logarithm of lipopeptide concentration. The critical aggregation concentration (CAC) was defined as the intersection of two straight lines best fitting to data points before and after reaching the CAC point.

[7] = test system: MCF-7 breast cancer cell line; format: cell-based, human
[8] = test system: Staphylococcus epidermidis ATCC 1922; format: cell-based; details: ATCC 1922, 18 h
Text: (§3) Fmoc-Lys(Boc)-OH and the coupling reagents were purchased from GL Biochem (Shanghai, China). Palmitoyl Fmoc-amino acids: Fmoc-Lys(C16)-OH, Fmoc-Orn(C16)-OH, Fmoc-Dab(C16)-OH, and Fmoc-Dap(C16)-OH were acquired from Iris Biotech GmbH (Marktredwitz, Germany). The resin and solvents were purchases from Rapp Polymere (Tübingen, Germany), Merck (Darmstadt, Germany), and Avantor Performance Materials (Gliwice, Poland), respectively. The phospholipids, 1,2-dipalmitoyl-sn-glycero-3-phosphocholine (DPPC), 1,2-dipalmitoyl-sn-glycero-3-[phospho-rac-(1-glycerol)] (DPPG), 1-palmitoyl-2-oleoyl-glycero-3-phosphocholine (POPC) and 1-palmitoyl-2-oleoyl-sn-glycero-3-[phospho-rac-(1-glycerol)] (POPG), were purchased from Avanti Polar Lipids (Alabaster, AL, USA). LPS E. coli 055:B5 and phosphate buffered saline (PBS) were from Sigma-Aldrich (Steinheim, Germany). The Mueller Hinton broth was bought from BIOCORP (Warsaw, Poland) and the RPMI-1640 medium from Sigma-Aldrich (Steinheim, Germany). LIVE/DEAD™ BacLight™ Bacterial Viability Kit was obtained from Thermo Fisher Scientific (Waltham, MA, USA). Bacterial strains (Escherichia coli ATCC 25922, Pseudomonas aeruginosa ATCC 9027, Staphylococcus aureus ATCC 25923, Staphylococcus epidermidis ATCC 1922) and the fungal strain (Candida albicans ATCC 10231) were obtained from the Polish Collection of Microorganisms, Polish Academy of Science, Institute of Immunology and Experimental Therapy, Wroclaw, Poland.
(§4) Antimicrobial activity of the lipopeptides was determined according to the broth microdilution guidelines recommended by the Clinical and Laboratory Standards Institute (CLSI). Minimum inhibitory concentrations (MICs) were assumed as the lowest concentration of the peptide solution, at which the visible growth of microorganisms was inhibited. MIC values of lipopeptides against bacteria were evaluated in the Mueller–Hinton broth and against fungus in the RPMI-1640 medium. Initial inoculums of bacteria and fungus (with concentrations of 5 × 10^5 CFU/mL and 2 × 10^3 CFU/mL, respectively) were exposed to increasing concentrations of lipopeptides solutions over the range of 1–512 µg/mL. […] The 96-well plates filled with appropriate inoculums and the tested compounds were incubated for 18 h at 37 °C. Presented values are the mean of the results obtained in three independent experiments.

[9] = test system: Pseudomonas aeruginosa ATCC 9027; format: cell-based; details: ATCC 9027, 18 h
Text: as §3, §4

[10] = test system: Candida albicans ATCC 10231; format: cell-based; details: ATCC 10231, 18 h
Text: as §3, §4

[11] = test system: Staphylococcus aureus ATCC 25923; format: cell-based; details: ATCC 25923, 18 h
Text: as §3, §4

[12] = test system: Escherichia coli ATCC 25922; format: cell-based; details: ATCC 25922, 18 h
Text: as §3, §4

[13] = intersection of two fitted lines

CCCCCCCCCCCCCCCC(=O)NCC[C@H](NC(=O)[C@@H](N)CCCCN)C(=O)N[C@@H](CCCCN)C(N)=O [K(DabC16)K-NH2] (H-Lys-[Dab](Palmitoyl)-Lys-NH2)
IC50, A549 (48h) [1]: >25 µg/mL
IC50, HCT-116 (48h) [2]: 16.79 ± 0.34 µg/mL (≈ 27.4 µM)
IC50, LNCaP (48h) [3]: 14.3 ± 0.45 µg/mL (≈ 23.4 µM)
IC50, A375 (48h) [4]: 11.99 ± 0.38 µg/mL (≈ 19.6 µM)
IC50, HT-29 (48h) [5]: 21.56 ± 0.22 µg/mL (≈ 35.2 µM)
γCAC, surface tension at the CAC point [6]: 39.8 mN/m
Critical aggregation concentration (CAC) [6]: 4.0 mg/mL
Critical aggregation concentration (CAC) [6, 13]: 6.6 mM
IC50, MCF-7 (48h) [7]: 16.28 ± 1.02 µg/mL (≈ 26.6 µM)
MIC, S. epidermidis [8]: 8 µg/mL (≈ 13.1 µM)
MIC, P. aeruginosa [9]: 16 µg/mL (≈ 26.1 µM)
MIC, C. albicans [10]: 16 µg/mL (≈ 26.1 µM)
MIC, S. aureus [11]: 8 µg/mL (≈ 13.1 µM)
MIC, E. coli [12]: 8 µg/mL (≈ 13.1 µM)

CCCCCCCCCCCCCCCC(=O)NCCCC[C@H](NC(=O)[C@@H](N)CCCCN)C(=O)N[C@@H](CCCCN)C(N)=O [K(KC16)K-NH2]
IC50, A549 (48h) [1]: >25 µg/mL
IC50, HCT-116 (48h) [2]: 20.72 ± 0.62 µg/mL (≈ 32.4 µM)
IC50, LNCaP (48h) [3]: >25 µg/mL
IC50, A375 (48h) [4]: 20.34 ± 1.47 µg/mL (≈ 31.8 µM)
IC50, HT-29 (48h) [5]: 21.97 ± 1.10 µg/mL (≈ 34.3 µM)
γCAC, surface tension at the CAC point [6]: 43.0 mN/m
Critical aggregation concentration (CAC) [6]: 3.5 mg/mL
Critical aggregation concentration (CAC) [6, 13]: 5.4 mM
IC50, MCF-7 (48h) [7]: 22.71 ± 0.79 µg/mL (≈ 35.5 µM)
MIC, S. epidermidis [8]: 8 µg/mL (≈ 12.5 µM)
MIC, P. aeruginosa [9]: 16 µg/mL (≈ 25 µM)
MIC, C. albicans [10]: 8 µg/mL (≈ 12.5 µM)
MIC, S. aureus [11]: 4 µg/mL (≈ 6.25 µM)
MIC, E. coli [12]: 8 µg/mL (≈ 12.5 µM)

CCCCCCCCCCCCCCCC(=O)NCCC[C@H](NC(=O)[C@@H](N)CCCCN)C(=O)N[C@@H](CCCCN)C(N)=O [K(OC16)K-NH2]
IC50, A549 (48h) [1]: >25 µg/mL
IC50, HCT-116 (48h) [2]: 18.07 ± 0.54 µg/mL (≈ 28.9 µM)
IC50, LNCaP (48h) [3]: >25 µg/mL
IC50, A375 (48h) [4]: 21.60 ± 0.76 µg/mL (≈ 34.5 µM)
IC50, HT-29 (48h) [5]: 20.51 ± 0.41 µg/mL (≈ 32.8 µM)
γCAC, surface tension at the CAC point [6]: 39.2 mN/m
Critical aggregation concentration (CAC) [6]: 3.7 mg/mL
Critical aggregation concentration (CAC) [6, 13]: 5.9 mM
IC50, MCF-7 (48h) [7]: 15.47 ± 1.04 µg/mL (≈ 24.7 µM)
MIC, S. epidermidis [8]: 8 µg/mL (≈ 12.8 µM)
MIC, P. aeruginosa [9]: 8 µg/mL (≈ 12.8 µM)
MIC, C. albicans [10]: 8 µg/mL (≈ 12.8 µM)
MIC, S. aureus [11]: 8 µg/mL (≈ 12.8 µM)
MIC, E. coli [12]: 8 µg/mL (≈ 12.8 µM)

CCCCCCCCCCCCCCCC(=O)NCCCC[C@H](NC(=O)[C@H](CCCCN)NC(=O)[C@@H](N)CCCCN)C(=O)N[C@@H](CCCCN)C(=O)N[C@@H](CCCCN)C(N)=O [KK(KC16)KK-NH2] (H-KKK(Palmitoyl)KK-NH2)
IC50, A549 (48h) [1]: >25 µg/mL
IC50, HCT-116 (48h) [2]: 15.98 ± 0.16 µg/mL (≈ 17.8 µM)
IC50, LNCaP (48h) [3]: >25 µg/mL
IC50, A375 (48h) [4]: >25 µg/mL
IC50, HT-29 (48h) [5]: 18.98 ± 0.38 µg/mL (≈ 21.2 µM)
IC50, MCF-7 (48h) [7]: >25 µg/mL
MIC, S. epidermidis [8]: 8 µg/mL (≈ 8.93 µM)
MIC, P. aeruginosa [9]: 16 µg/mL (≈ 17.9 µM)
MIC, C. albicans [10]: 16 µg/mL (≈ 17.9 µM)
MIC, S. aureus [11]: 8 µg/mL (≈ 8.93 µM)
MIC, E. coli [12]: 4 µg/mL (≈ 4.46 µM)
